# Assay results taken from EP0785211A1, “New substituted 19-nor-pregnane derivatives” (LABORATOIRE THERAMEX, priority 1996, dated 1997).
# Like-named read-outs stand apart in the source and are kept apart here. Marks after values point to notes of the source that are not given here.
# Columns and labels:
# [1] = biological target: T1, human T47-D cell progesterone receptor (Homo sapiens, UniProt P06401); assay: Relative binding affinity to human T47-D cell progesterone receptor (competition against [3H]-ORG 2058); conditions: for RBA: relative binding affinity, nomegestrol acetate as reference = 100%
# T1 construct: Human PR are readily available in high amounts from the T47-D cell line in culture; endogenous in cells; host or cells: T47-D human breast cancer cell line
# T1 sequence (P06401 1-933): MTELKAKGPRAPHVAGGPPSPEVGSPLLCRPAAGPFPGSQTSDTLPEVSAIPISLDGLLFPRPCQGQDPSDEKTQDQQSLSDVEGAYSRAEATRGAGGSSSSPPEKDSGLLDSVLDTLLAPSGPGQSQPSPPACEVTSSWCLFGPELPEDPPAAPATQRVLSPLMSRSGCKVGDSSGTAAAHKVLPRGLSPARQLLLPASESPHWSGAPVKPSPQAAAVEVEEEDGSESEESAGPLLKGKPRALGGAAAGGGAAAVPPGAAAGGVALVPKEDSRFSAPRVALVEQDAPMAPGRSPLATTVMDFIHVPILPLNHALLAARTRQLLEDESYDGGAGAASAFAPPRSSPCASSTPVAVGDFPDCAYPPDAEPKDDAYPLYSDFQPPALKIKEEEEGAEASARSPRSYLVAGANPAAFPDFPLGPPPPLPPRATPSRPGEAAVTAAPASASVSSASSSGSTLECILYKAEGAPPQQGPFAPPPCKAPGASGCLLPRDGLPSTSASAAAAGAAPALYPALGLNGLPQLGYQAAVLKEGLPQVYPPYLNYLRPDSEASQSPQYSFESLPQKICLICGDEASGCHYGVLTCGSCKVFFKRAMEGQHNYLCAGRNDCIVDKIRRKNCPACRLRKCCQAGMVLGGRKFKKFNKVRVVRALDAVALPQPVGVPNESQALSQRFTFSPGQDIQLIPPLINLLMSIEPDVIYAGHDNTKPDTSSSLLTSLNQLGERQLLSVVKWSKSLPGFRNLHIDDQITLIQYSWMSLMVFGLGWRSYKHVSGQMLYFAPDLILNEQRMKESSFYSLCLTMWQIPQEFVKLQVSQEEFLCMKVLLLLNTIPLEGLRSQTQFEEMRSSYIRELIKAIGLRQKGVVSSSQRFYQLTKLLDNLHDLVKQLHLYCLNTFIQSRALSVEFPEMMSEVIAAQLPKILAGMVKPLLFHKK
# Procedure: Relative binding affinities (RBA) for the human T47-D cell PR are determined as previously described (J. Botella, et al., J. Steroid Biochem. Molec. Biol., 1994, 50 : 41-47) using [^3H]-ORG 2058 as the labelled specific ligand (G. Fleischmann et al., Biochim. Biophys. Acta, 1978, 540 : 500-517) and nomegestrol acetate as the non-radioactive reference progestin. Competitive incubations were performed against 2 nM of [^3H]-ORG 2058 for 3 hours at 4°C with six different concentrations of non-labelled steroid, chosen between 4 and 256 nM following a 1/2^n dilution scheme. Displacement curves were fitted for each experiment, and the concentration inhibiting 50% of the specific binding of [^3H]-ORG 2058 was calculated for each curve (IC50).
# [2] = tested on: uterus of estrogen-primed immature female rabbits; assay: Clauberg-McPhail test by oral administration (endometrial transformation, "dentelle"); type: in vivo, rabbit; conditions: for Relative activity: relative to nomegestrol acetate = 100%; for ED50: total dose giving mean McPhail grade equal to 2, maximal administered dose 0.75 mg
# Source text: The progestative activity of the compounds of formula (I) can be evaluated in two specific experimental models : the affinity for the progesterone receptor (PR) in vitro, and the endometrial tranformation of the rabbit uterus in vivo.
# One specific pharmacological test has been standardized in vivo for the detection and quantitation of pseudogestagenic activity since the mid-30's : it is based on the property of the uterus of estrogen-primed immature female rabbits to respond to very slight amounts of progestin by a typical endometrial transformation into a densely packed and interlaced epithelial network called "dentelle". The original test schedule, which includes 6 days of estrogen priming (total subcutaneous dose of 30 µg/rabbit of estradiol benzoate) followed by 5 days of progestative treatment, was designed as early as 1930 by C. Clauberg, Zentr. Gynäkol. 1930, 54 : 2757-2770. The semi-quantitative scale used to grade the intensity of the microscopical appearance of the "dentelle" was set up by M.K. McPhail, J. Physiol (London), 1934, 83, 145-156. This overall Clauberg-McPhail procedure has been extensively used to screen steroids for putative progestative activity in vivo and is still part of the basic hormonal profile of any new progestin such as norgestimate (A. Phillips et al., Contraception, 1987, 36, 181-192) or desogestrel (J. Van der Vies et al.,Arzneim. Forsch./Drug Res. 1983, 33, 231-236).
# The progestative potency is inversely related to the dose needed to induce a half-maximal stimulation of the "dentelle", i.e. to record a mean McPhail grade equal to 2. This ED50 is deduced for the dose-response curve and expressed in total dose/rabbit/5 days. All compounds were tested for activity only following oral administration.
# [3] = tested on: immature castrated male rats; assay: Residual androgenic activity: hypertrophy of ventral prostate and seminal vesicles after 10 daily administrations; type: in vivo, rat; conditions: for Seminal Vesicle / Ventral Prostate: mean ± s.e.m. of 8 animals; for androgenic potential (activity on the growth of male accessory sex organs): result in words, up to 20 mg/animal/day
# Source text: The residual androgenic potential is an important feature to evaluate for any new progestin, because it is highly predictive of androgenic side-effects in women. One pharmacological model of androgenic activity has been standardized to screen steroids or related compounds in immature castrated male rats, using the hypertrophy of the ventral prostate and seminal vesicles as the endpoint, following 10 daily administrations (R.I. Dorfman, in Methods in Hormone Research, volume 2, LONDON, Academic Press, 1962 : 275-313; A.G. Hilgar et D.J. Hummel, Androgenic and Myogenic Endocrine Bioassay Data, edited by the U.S. Department of Health, Education and Welfare, […].C., 1964).
# Medroxyprogesterone acetate is a 6α-methylpregnene derivative which, besides its main progestative activity, is well-known for its weak androgenic properties (M. Tausk et J. de Visser, In International Encyclopedia of Pharmacology and Therapeutics, Section 48 : Progesterone, Progestational Drugs and Antifertility Agents, volume II, OXFORD, Pergamon Press, 1972 : 35-216); it was therefore chosen as a reference compound in the testing for residual androgenic activity of test examples according to the invention.
# The compounds of examples 2 and 7 were tested for residual androgenic properties in the immature castrated male rat model by oral administration (PO), in comparison with medroxyprogesterone acetate, in two different experiments (ventral prostate and seminal vesical hypertrophy), as described above; testosterone was used as a standard androgenic agent by subcutaneous injection (SC).
# [4] = Table 3 experiment, SC, 0,05 mg/animal/day
# [5] = Table 4 experiment, SC, 0,05 mg/animal/day
Structure (SMILES),IC50 [1],RBA [1],Relative activity [2],ED50 [2],further results
"CC(=O)O[C@]1(C(C)=O)[C@H]2C[C@H]2[C@H]2[C@@H]3C=C(C)C4=CC(=O)CC[C@@H]4[C@H]3CC[C@@]21C [Example 6, 17α-acetoxy-6-methyl-15β,16β-methylene-3,20-dioxo-19-nor-pregna-4,6-diene]",21.1 ± 6 nM,78%,< 18%,> 0.750 mg/rabbit/5 days,
"C[C@]12CC[C@H]3[C@@H](CCC4=CC(=O)CC[C@@]43C)[C@@H]1CC[C@@H]2O [Testosterone, reference compound]",,,,,"Seminal Vesicle [3, 4]: 85.9 ± 6.8 mg; Ventral Prostate [3, 4]: 85.1 ± 5.9 mg; Seminal Vesicle [3, 5]: 90.3 ± 6.3 mg; Ventral Prostate [3, 5]: 90.4 ± 4.4 mg"
"CC(=O)O[C@]1(C(C)=O)[C@H]2C[C@H]2[C@H]2[C@@H]3C[C@H](C)C4=CC(=O)CC[C@@H]4[C@H]3CC[C@@]21C [Example 7, 17α-acetoxy-6α-methyl-15β,16β-methylene-3,20-dioxo-19-nor-pregna-4-ene]",19.7 ± 3 nM,83%,54%,0.245 mg/rabbit/5 days,"Ventral Prostate ([3]; Table 4 experiment, PO, 20 mg/animal/day, castrated controls 12.0 ± 0.9): 16.5 ± 0.9 mg; Seminal Vesicle ([3]; Table 4 experiment, PO, 20 mg/animal/day, castrated controls 12.3 ± 0.7): 13.9 ± 0.8 ns mg; androgenic potential (activity on the growth of male accessory sex organs) ([3]; PO): very limited androgenic potential"
"CC(=O)O[C@]1(C(C)=O)CC[C@H]2[C@@H]3C=C(C)C4=CC(=O)CC[C@@H]4[C@H]3CC[C@@]21C [Nomegestrol acetate, reference compound]",,100%,100%,0.132 ± 0.013^(a) (0.108/0.150/0.138) mg/rabbit/5 days,"IC50 ([1]; against 2 nM [3H]-ORG 2058, 3 hours at 4°C, mean ± s.e.m., read-out: IC50): 16.4 ± 1.3 nM"
"CC(=O)OC1(C(C)=O)C2CC2C2C3C(C)C(C)C4=CC(=O)CCC4C3CCC21C (stereo not drawn) [Example 10, 17α-acetoxy-6α,7α-dimethyl-15β,16β-methylene-3,20-dioxo-19-nor-pregna-4-ene]",,,22%,0.600 mg/rabbit/5 days,
"CC(=O)O[C@]1(C(C)=O)C[C@@H](C)[C@H]2[C@@H]3C[C@H](C)C4=CC(=O)CC[C@@H]4[C@H]3CC[C@@]21C [Example 2, 17α-acetoxy-6α,15β-dimethyl-3,20-dioxo-19-nor-pregna-4-ene]",28.8 ± 5.6 nM,57%,165%,0.080 mg/rabbit/5 days,"Seminal Vesicle ([3]; Table 3 experiment, PO, 20 mg/animal/day, castrated controls 10.4 ± 0.4): 12.1 ± 0.7 ns mg; Ventral Prostate ([3]; Table 3 experiment, PO, 20 mg/animal/day, castrated controls 14.6 ± 1.4): 13.0 ± 1.1 ns mg; androgenic potential (activity on the growth of male accessory sex organs) ([3]; PO): totally devoid of any activity on the growth of male accessory sex organs"
"CCO[C@]1(C(C)=O)[C@H]2C[C@H]2[C@H]2[C@@H]3C[C@H](C)C4=CC(=O)CC[C@@H]4[C@H]3CC[C@@]21C [Example 8, 17α-ethoxy-15β,16β-methylene-6α-methyl-3,20-dioxo-19-nor-pregna-4-ene]",,78%,99%,0.133 mg/rabbit/5 days,"IC50 ([1]; against 2 nM [3H]-ORG 2058, 3 hours at 4°C, mean ± s.e.m.): 21.1 ± 6 nM"
"CC(=O)O[C@]1(C(C)=O)C[C@@H](C)[C@H]2[C@@H]3C=C(C)C4=CC(=O)CC[C@@H]4[C@H]3CC[C@@]21C [Example 1, 17α-acetoxy-6,15β-dimethyl-3,20-dioxo-19-nor-pregna-4,6-diene]",38 ± 10.3 nM,43%,< 18%,> 0.750 mg/rabbit/5 days,
"CCO[C@]1(C(C)=O)[C@H]2C[C@H]2[C@H]2[C@@H]3C=C(C)C4=CC(=O)CC[C@@H]4[C@H]3CC[C@@]21C [Example 9, 17α-ethoxy-15β,16β-methylene-6-methyl-20-oxo-19-nor-pregna-4,6-diene]",32.3 ± 5.3 nM,51%,,,
"CC(=O)O[C@]1(C(C)=O)CC[C@H]2[C@@H]3[C@H](C)[C@H](C)C4=CC(=O)CC[C@@H]4[C@H]3CC[C@@]21C [Example 11, 17α-acetoxy-6α,7α-dimethyl-3,20-dioxo-19-nor-pregna-4-ene]",25.5 ± 5.3 nM,64%,132%,0.100 mg/rabbit/5 days,
